Source: PMC9814642 (2021)

Legend:
[1] = tested on: Oxyticha nova G-quadruplex (DNA, G4) GGGGTTTTGGGG; assay: CD melting; settings: 100 mM NaCl; 10 mM Tris-HCl pH 7.5; no change of Tm 59.2 °C; binds by end-stacking
[2] = tested on: HT G-quadruplex (DNA, G4) AGGGTTAGGGTTAGGGTTAGGG; assay: CD melting at 295 nm; settings: 100 mM NaCl; 10 mM Tris-HCl pH 7.5; derived from two Tm (56.6, 61.0); highest compound concentration, ratio only in Figure 2D
[3] = tested on: HT G-quadruplex (DNA, G4) AGGGTTAGGGTTAGGGTTAGGG; assay: UV-vis absorption titration; settings: 100 mM NaCl; 10 mM Tris-HCl pH 7.5, 25 °C; fit with [DNA] in base pairs, binding size s = 2.3; per base
[4] = tested on: Oxyticha nova G-quadruplex (DNA, G4) GGGGTTTTGGGG; assay: UV-vis absorption titration; settings: 100 mM NaCl; 10 mM Tris-HCl pH 7.5, 25 °C; fit with [DNA] in base pairs, binding size s = 1; per base
[5] = tested on: ds-DNA (HT with complementary sequence) (DNA, duplex) AGGGTTAGGGTTAGGGTTAGGG/CCCTAACCCTAACCCTAACCCT; assay: time-resolved luminescence at 620 nm; settings: 100 mM NaCl; 10 mM Tris-HCl pH 7.5; lifetimes 492 and 88.1 ns
[6] = tested on: HT8 (DNA, G4) AGGGTTATGGTTAGGGTTAGGG; assay: time-resolved luminescence at 620 nm; settings: 100 mM NaCl; 10 mM Tris-HCl pH 7.5; lifetimes 1046 and 151.2 ns
[7] = tested on: HT10 (DNA, G4) AGGGTTAGGTTTAGGGTTAGGG; assay: time-resolved luminescence at 620 nm; settings: 100 mM NaCl; 10 mM Tris-HCl pH 7.5; lifetimes 430.7 and 61.4 ns

ΔTm [1]: 0 °C
ΔTm [2]: 4.4 °C
K [3]: 5.1e+06 M⁻¹
K [4]: 990000 M⁻¹
binding [5]: yes
binding [6]: yes
binding [7]: yes
Structure (SMILES): [Ru+2].c1ccc2nc3c4cccnc4c4ncccc4c3nc2c1.c1cnc2c(c1)ccc1cccnc12.c1cnc2c(c1)ccc1cccnc12
